From ChEMBL document CHEMBL4390682, “Purification, structural elucidation, antioxidant capacity and neuroprotective potential of the main polyphenolic compounds contained in Achyrocline satureioides (Lam) D.C. (Compositae)” (Bioorg Med Chem, 2019) come the findings set out here.

pEC50: −log10 of the molar value. The source made the active and inactive calls. The calls are words filed in the database; no cut-off is given here.

Data set [1] is described as follows: Antioxidant activity in pH 7.4 PBS assessed as reactivity against GSH at 50 uM incubated for 10 mins in presence of HRP and H2O2 in presence of 40 uM GSH by HPLC-DAD and HPLC-MS/MS analysis relative to control. It counts as functional.
A short description of data set [2]: Antioxidant activity in pH 7.4 PBS assessed as H2O2 oxidation at 50 uM incubated for 10 mins in presence of HRP and H2O2 by UV spectroscopy and HPLC analysis relative to control. It counts as functional.
The subject of another data set is Brain. Kind of data set: Antioxidant activity in Sprague-Dawley rat brain homogenates assessed as inhibition of lipoperoxidation incubated for 40 mins by fluorescence based assay. It counts as functional, tissue-based.
The species entered for another data set is Rattus norvegicus. Kind of data set: Neuroprotective activity in Sprague-Dawley rat CGN cells assessed as protection against H2O2-induced cytotoxicity by measuring increase in cell viability at 5 to 100 uM pre-incubated for 24 hrs before H2O2 stimulation for 24 hrs by MTT assay. It counts as functional.
Data set [3] is described as follows: Antioxidant activity in pH 7.4 PBS assessed as ABTS+ radical scavenger activity incubated under absence of light for 16 hrs. It counts as functional.
Data set [4] can be described thus: GSH reactivity in pH 7.4 PBS assessed as GSH-adduct formation at 50 uM incubated for 10 mins in presence of HRP and H2O2 in presence of 40 uM GSH by HPLC-DAD and HPLC-MS/MS analysis relative to control. It counts as physicochemical. Conditions: buffer, pH 7.4, 10 min.
A short description of data set [5]: GSH reactivity in pH 7.4 PBS assessed as hydroxylated quercetin formation at 50 uM incubated for 10 mins in presence of HRP and H2O2 in presence of 40 uM GSH by HPLC-DAD and HPLC-MS/MS analysis relative to control. It counts as physicochemical. Particulars: buffer, pH 7.4, 10 min.

In the case of `O=c1cc(-c2ccc(O)c(O)c2)oc2cc(O)cc(O)c12` [LUTEOLIN], the outcome (in data set [1]; in the data set listed under Rattus norvegicus) was Active. In addition, the Activity in data set [2] was determined as 25%. Also, the pEC50 in the data set on Brain was 4.10; in data set [3], 4.34.
For `COc1c(-c2ccc(O)c(O)c2)oc2cc(O)cc(O)c2c1=O` [3-O-METHYLQUERCETIN], the outcome in data set [1] was Active. Also, the Activity in data set [2] was 0%. In addition, the pEC50 with Brain was 4.13; in data set [3] it was 4.35. Also, the result in the data set listed under Rattus norvegicus was inactive.
Regarding `O=c1c(O[C@@H]2O[C@H](CO)[C@@H](O)[C@H](O)[C@H]2O)c(-c2ccc(O)c(O)c2)oc2cc(O)cc(O)c12` [ISOQUERCETIN], the result (in data set [1]; in the data set listed under Rattus norvegicus) was Active. Also, the Activity in data set [2] is 15%. In addition, the pEC50 in the data set on Brain is 4.03; in data set [3], 3.82.
Take `O=c1c(O)c(-c2ccc(O)c(O)c2)oc2cc(O)cc(O)c12` [QUERCETIN]: the result (in data set [1]; in the data set listed under Rattus norvegicus) was Active. In addition, the Activity in data set [2] was 90%; in data set [4], “Active”; in data set [5] it was “Active”. The figures for the pEC50 (in the data set with Brain; in data set [3]) were 5.24 and 5.02, respectively.
